Assay results: patent publication US11459331B2, “Chemical compounds” (Avista Pharma Solutions, Inc., priority 2019, dated 2022)

Biological target: T1, human EP4 receptor (Homo sapiens, UniProt P35408)
T1 construct: Eurofins Cerep
Experiment: human EP4 receptor antagonist screen (Eurofins Cerep; cAMP HTRF, PGE2 30 nM stimulus, CHO cells)
Type: cell-based
Details: at 100 nM, EP4(h) antagonist effect, human recombinant (CHO cells), 10 min RT, read-out: % inhibition of control reference agonist response (PGE2)
Description: Compounds were assayed at Eurofins Cerep using the human EP4 receptor antagonist screen. Cellular antagonist effect was calculated as a % inhibition of control reference agonist response for each target (PGE2). In each EP4(h) experiment, a reference antagonist compound, GW627368X, was tested concurrently with the test compounds, and the data were compared with historical values determined at Eurofins. The experiments were accepted in accordance with Eurofins validation Standard Operating Procedure.

T1 sequence (P35408 whole entry): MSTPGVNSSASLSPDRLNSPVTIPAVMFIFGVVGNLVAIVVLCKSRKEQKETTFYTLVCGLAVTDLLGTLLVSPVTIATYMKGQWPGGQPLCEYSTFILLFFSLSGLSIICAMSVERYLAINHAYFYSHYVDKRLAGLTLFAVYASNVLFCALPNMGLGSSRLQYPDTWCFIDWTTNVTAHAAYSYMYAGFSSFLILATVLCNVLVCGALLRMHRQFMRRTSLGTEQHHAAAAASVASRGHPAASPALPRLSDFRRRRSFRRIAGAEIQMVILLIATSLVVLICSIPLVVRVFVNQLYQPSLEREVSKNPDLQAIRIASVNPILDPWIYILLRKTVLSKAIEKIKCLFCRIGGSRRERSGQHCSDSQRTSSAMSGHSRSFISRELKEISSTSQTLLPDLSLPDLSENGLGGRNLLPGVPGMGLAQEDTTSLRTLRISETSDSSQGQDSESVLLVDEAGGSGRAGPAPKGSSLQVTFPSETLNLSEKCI

inhibition at 0.1 µM | Structure (SMILES)
≥ 50% | CCc1nc2c(C)nc(C)cn2c1-c1ccc(CCNC(=O)NS(=O)(=O)c2ccc(Cl)cc2)cc1 [Compound 1, 1-(4-chlorophenyl)sulfonyl-3-[2-[4-(2-ethyl-6,8-dimethyl-imidazo[1,2-a]pyrazin-3-yl)phenyl]ethyl]urea]
≥ 50% | CCc1nc2c(C)nc(C)cn2c1-c1ccc(CCNC(=O)NS(=O)(=O)c2ccccc2C)cc1 [Compound 2, 1-[2-[4-(2-ethyl-6,8-dimethyl-imidazo[1,2-a]pyrazin-3-yl)phenyl]ethyl]-3-(o-tolylsulfonyl)urea]
≥ 50% | CCc1nc2c(C)nc(-c3ccncc3)cn2c1-c1ccc(CCNC(=O)NS(=O)(=O)c2ccc(C)cc2)cc1 [Compound 13, 1-[2-[4-[2-ethyl-8-methyl-6-(4-pyridyl)imidazo[1,2-a]pyrazin-3-yl]phenyl]ethyl]-3-(p-tolylsulfonyl)urea]
≥ 50% | Cc1ccc(S(=O)(=O)NC(=O)NCCc2ccc(-c3c(-c4ccon4)nc4c(C)nc(C)cn34)cc2)cc1 [Compound 15, 1-[2-[4-(2-isoxazol-3-yl-6,8-dimethyl-imidazo[1,2-a]pyrazin-3-yl)phenyl]ethyl]-3-(p-tolylsulfonyl)urea]
